Assay results: ChEMBL document CHEMBL5325432, “Systematic study of 1,2,3-triazolyl sterols for the development of new drugs against parasitic Neglected Tropical Diseases” (Eur J Med Chem, 2023)

Tests used:
Trypanosoma brucei = experiment: Antiparasitic activity against Trypanosoma brucei assessed as parasite growth inhibition incubated for 3 days by Alamar blue assay; format: functional, organism-based; settings: 72 h
Leishmania donovani = experiment: Antileishmanial activity against Leishmania donovani S1 promastigotes assessed as parasite growth inhibition incubated for 72 hrs by Alamar blue assay; format: functional, organism-based; settings: S1, 72 h
[1] = Cytotoxicity against African green monkey Vero cells incubated for 48 hrs; format: toxicity, cell-based; settings: African green monkey (Chlorocebus sabaeus)
Trypanosoma cruzi = experiment: Antiparasitic activity against Trypanosoma cruzi epimastigotes assessed as parasite growth inhibition incubated for 14 days by Alamar blue assay; format: functional, organism-based; settings: 336 h
[2] = Selectivity index, ratio of IC50 for cytotoxicity against African green monkey Vero cells to IC50 for antiparasitic activity against Trypanosoma brucei assessed as parasite growth inhibition; format: toxicity, cell-based; settings: read-out: Ratio IC50
[3] = Selectivity index, ratio of IC50 for cytotoxicity against African green monkey Vero cells to IC50 for antileishmanial activity against Leishmania donovani S1 promastigotes assessed as parasite growth inhibition; format: toxicity, cell-based; settings: read-out: Ratio IC50
[4] = Selectivity index, ratio of IC50 for cytotoxicity against African green monkey Vero cells to IC50 for antiparasitic activity against Trypanosoma cruzi epimastigotes assessed as parasite growth inhibition; format: toxicity, cell-based; settings: read-out: Ratio IC50

SMILES | IC50 (Trypanosoma brucei) [µM] | IC50 (Leishmania donovani) [µM] | IC50 at 48 h [1] [µM] | IC50 (Trypanosoma cruzi) [µM] | selectivity ratio [2] | selectivity ratio [3] | selectivity ratio [4]
CC(=O)O[C@H]1CC[C@@]2(C)C(=CC[C@H]3[C@@H]4CC[C@H]([C@@H](C)NCc5cn(Cc6ccccc6)nn5)[C@@]4(C)CC[C@@H]32)C1 | 1.15 | > 10 | > 7.16 | > 10 | > 6.22 | – | –
CC(=O)O[C@H]1CC[C@@]2(C)C(=CC[C@H]3[C@@H]4CC[C@H]([C@@H](C)NCc5cn(C/C=C(\C)CCC=C(C)C)nn5)[C@@]4(C)CC[C@@H]32)C1 | 1.25 | 10.3 | > 8.67 | > 10 | > 6.93 | 0.84 | –
C#CCN[C@@H](C)[C@H]1CC[C@H]2[C@@H]3CC=C4C[C@@H](OC(C)=O)CC[C@]4(C)[C@H]3CC[C@]12C | 1.8 | > 10 | > 11.9 | 8.88 | > 6.44 | – | > 1.31
CCCCCCCCn1cc(CN[C@@H](C)[C@H]2CC[C@H]3[C@@H]4CC=C5C[C@@H](OC(C)=O)CC[C@]5(C)[C@H]4CC[C@]23C)nn1 | 0.62 | 7.87 | > 9.04 | > 10 | > 14.6 | > 1.15 | –
C[C@]12CC[C@H]3[C@@H](CC=C4C[C@@H](O)CC[C@@]43C)[C@@H]1CC[C@@H]2[C@@](C)(O)Cn1cc(CCCc2ccccc2)nn1 | 2.27 | > 10 | > 9.66 | > 10 | > 4.25 | – | –
C[C@@H](NCc1cn(CCCc2ccccc2)nn1)[C@H]1CC[C@H]2[C@@H]3CC=C4C[C@@H](O)CC[C@]4(C)[C@H]3CC[C@]12C | 1.82 | 1.94 | > 9.42 | 6.48 | > 5.18 | > 5 | > 1.45
C[C@H](NCc1cn(CCCc2ccccc2)nn1)[C@H]1CC[C@H]2[C@@H]3CC=C4C[C@@H](O)CC[C@]4(C)[C@H]3CC[C@]12C | 1.43 | 1.35 | > 9.68 | 2.22 | > 6.77 | > 7.14 | > 4.36
C[C@]12CC[C@H]3[C@@H](CC=C4C[C@@H](O)CC[C@@]43C)[C@@H]1CC[C@@H]2[C@@](C)(O)Cn1cc(CCO)nn1 | 1.78 | > 10 | > 11.3 | > 10 | > 6.33 | – | –
CCCCCCCCn1cc(CN[C@@H](C)[C@H]2CC[C@H]3[C@@H]4CC=C5C[C@@H](O)CC[C@]5(C)[C@H]4CC[C@]23C)nn1 | 0.55 | 1.47 | > 9.79 | 1.95 | > 17.8 | > 6.67 | > 5.02
CC(=O)O[C@H]1CC[C@@]2(C)C(=CC[C@H]3[C@@H]4CC[C@H]([C@H](C)NCc5cn(Cc6ccccc6)nn5)[C@@]4(C)CC[C@@H]32)C1 | 0.2 | 2.54 | > 9.42 | 2.55 | > 47.1 | > 3.7 | > 3.69
C[C@]12CC[C@H]3[C@@H](CC=C4C[C@@H](O)CC[C@@]43C)[C@@H]1CC[C@@H]2[C@@](C)(O)Cn1cc(-c2ccccc2)nn1 | > 10 | > 10 | > 10.5 | > 10 | – | – | –
CC(=O)O[C@H]1CC[C@@]2(C)C(=CC[C@H]3[C@@H]4CC[C@H]([C@@H](C)NCc5cn(CCCc6ccccc6)nn5)[C@@]4(C)CC[C@@H]32)C1 | 0.2 | > 10 | > 8.95 | 4.5 | > 44.7 | – | > 1.99
C#CCNC[C@](C)(O)[C@H]1CC[C@H]2[C@@H]3CC=C4C[C@@H](O)CC[C@]4(C)[C@H]3CC[C@@]21C | 1.77 | > 10 | > 12.3 | > 10 | > 6.95 | – | –
CCCCCCCCn1cc(CN[C@H](C)[C@H]2CC[C@H]3[C@@H]4CC=C5C[C@@H](OC(C)=O)CC[C@]5(C)[C@H]4CC[C@]23C)nn1 | 1.98 | > 10 | > 9.04 | > 10 | > 4.57 | – | –
C[C@H](NCc1cn(Cc2ccccc2)nn1)[C@H]1CC[C@H]2[C@@H]3CC=C4C[C@@H](O)CC[C@]4(C)[C@H]3CC[C@]12C | 0.68 | 1.33 | > 10.2 | 0.33 | > 15 | > 7.69 | > 31
C#CCN[C@H](C)[C@H]1CC[C@H]2[C@@H]3CC=C4C[C@@H](OC(C)=O)CC[C@]4(C)[C@H]3CC[C@]12C | 5.03 | > 10 | > 11.9 | > 10 | > 2.3 | – | –

SMILES | IC50 (Trypanosoma brucei) [µM] | IC50 (Leishmania donovani) [µM] | IC50 at 48 h [1] [µM] | IC50 (Trypanosoma cruzi) [µM] | selectivity ratio [2] | selectivity ratio [3] | selectivity ratio [4]
COC(=O)c1cn(C[C@](C)(O)[C@H]2CC[C@H]3[C@@H]4CC=C5C[C@@H](O)CC[C@]5(C)[C@H]4CC[C@@]32C)nn1 | 8.28 | > 10 | > 10.6 | > 10 | > 1.28 | – | –
C[C@]12CC[C@H]3[C@@H](CC=C4C[C@@H](O)CC[C@@]43C)[C@@H]1CC[C@@H]2[C@@](C)(O)CNCc1cn(CCCc2ccccc2)nn1 | > 10 | 1.04 | > 9.14 | > 10 | – | > 8.77 | –
CC(=O)O[C@H]1CC[C@@]2(C)C(=CC[C@H]3[C@@H]4CC[C@H]([C@H](C)NCc5cn(C/C=C(\C)CCC=C(C)C)nn5)[C@@]4(C)CC[C@@H]32)C1 | 0.63 | 4.83 | > 8.67 | > 10 | > 13.8 | > 1.79 | –
CCOC(=O)Cn1cc(CNC[C@](C)(O)[C@H]2CC[C@H]3[C@@H]4CC=C5C[C@@H](O)CC[C@]5(C)[C@H]4CC[C@@]32C)nn1 | > 10 | > 10 | > 9.71 | > 10 | – | – | –
CCCCCCCCn1cc(CN[C@H](C)[C@H]2CC[C@H]3[C@@H]4CC=C5C[C@@H](O)CC[C@]5(C)[C@H]4CC[C@]23C)nn1 | 1.5 | 2.55 | > 9.79 | > 10 | > 6.53 | > 3.85 | –
CCOC(=O)Cn1cc(CN[C@@H](C)[C@H]2CC[C@H]3[C@@H]4CC=C5C[C@@H](O)CC[C@]5(C)[C@H]4CC[C@]23C)nn1 | > 10 | 6.4 | > 10.3 | > 10 | – | > 1.61 | –
C[C@]12CC[C@H]3[C@@H](CC=C4C[C@@H](O)CC[C@@]43C)[C@@H]1CC[C@@H]2[C@@](C)(O)CN=[N+]=[N-] | > 10 | > 10 | > 12 | > 10 | – | – | –
CC(C)=CCC/C(C)=C/Cn1cc(CN[C@@H](C)[C@H]2CC[C@H]3[C@@H]4CC=C5C[C@@H](O)CC[C@]5(C)[C@H]4CC[C@]23C)nn1 | 0.64 | 1.68 | > 9.35 | 3.17 | > 14.6 | > 5.56 | > 2.95
CCOC(=O)Cn1cc(CN[C@H](C)[C@H]2CC[C@H]3[C@@H]4CC=C5C[C@@H](OC(C)=O)CC[C@]5(C)[C@H]4CC[C@]23C)nn1 | 6.5 | > 10 | > 9.49 | > 10 | > 1.46 | – | –
CCCCCc1cn(C[C@](C)(O)[C@H]2CC[C@H]3[C@@H]4CC=C5C[C@@H](O)CC[C@]5(C)[C@H]4CC[C@@]32C)nn1 | 0.18 | > 10 | > 10.6 | 6.33 | > 59.8 | – | > 1.68
CCOC(=O)Cn1cc(CN[C@H](C)[C@H]2CC[C@H]3[C@@H]4CC=C5C[C@@H](O)CC[C@]5(C)[C@H]4CC[C@]23C)nn1 | 6.5 | 6.6 | > 10.3 | > 10 | > 1.59 | > 1.56 | –
C[C@@H](NCc1cn(Cc2ccccc2)nn1)[C@H]1CC[C@H]2[C@@H]3CC=C4C[C@@H](O)CC[C@]4(C)[C@H]3CC[C@]12C | 1.77 | 6.14 | > 10.2 | 2.47 | > 5.78 | > 1.67 | > 4.14
CC(C)=CCC/C(C)=C/Cn1cc(CN[C@H](C)[C@H]2CC[C@H]3[C@@H]4CC=C5C[C@@H](O)CC[C@]5(C)[C@H]4CC[C@]23C)nn1 | 0.66 | 1.14 | > 9.35 | > 10 | > 14.2 | > 8.2 | –
O=C(Cn1ccnc1[N+](=O)[O-])NCc1ccccc1 [BENZNIDAZOLE] | – | – | – | 7.4 | – | – | 1.9
CC1CS(=O)(=O)CCN1/N=C/c1ccc([N+](=O)[O-])o1 (stereo not given) [NIFURTIMOX] | – | – | – | – | 18.8 | – | 15.2
N=C(N)c1ccc(OCCCCCOc2ccc(C(=N)N)cc2)cc1 [PENTAMIDINE] | – | – | – | – | – | 7.6 | –
